This is an account of results in paper PMC5896380, “Selective imaging of cathepsin L in breast cancer by fluorescent activity-based probes” (Chemical Science, 2018).

The target in one test is T1, cathepsin K (Homo sapiens, UniProt P43235).
T1 construct: made in house
T1 sequence (P43235 115-329): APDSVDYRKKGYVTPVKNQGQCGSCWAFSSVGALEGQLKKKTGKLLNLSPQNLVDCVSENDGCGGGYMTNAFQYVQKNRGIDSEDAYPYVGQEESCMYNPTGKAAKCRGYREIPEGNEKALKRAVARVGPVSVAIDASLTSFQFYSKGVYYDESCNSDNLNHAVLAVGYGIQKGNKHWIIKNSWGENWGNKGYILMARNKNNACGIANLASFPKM
Kind of test: kobs/I of activity-based probes, cathepsin K. Type of test: biochemical. Particulars: Fig. 6A; pseudo-first order, probe at least 5-fold excess over cathepsin, 100 μM ACC substrate; pH 5.5, 37 °C; triplicate, SD below 20%. The protocol: (§1) All kinetic experiments were performed using fMax (Molecular Devices) and CLARIOStar (BMG LABTECH) spectrofluorimeters operating in kinetic mode using 96-well plates. ACC-labeled substrates were screened using 355 nm and 460 nm wavelengths (excitation and emission, respectively). […] The buffer was prepared at room temperature and the enzyme kinetic studies were performed at 37 °C.
(§2) For the kinetic studies, five recombinant human cathepsins (B, L, V, K and S) were expressed and purified and active site titrated using an E64 inhibitor. The kobs/I parameter was measured under pseudo-first order kinetic conditions, as described.[40] The cathepsin of interest was mixed with various concentrations of probe (at least 5-fold excess over cathepsin) and 100 μM ACC-fluorescence substrate. The experiments were repeated at least three times, and the results are presented as an average. The SDs were below 20%.

The next test has as its target T2, cathepsin S (Homo sapiens, UniProt P25774).
T2 construct: made in house
Kind of test: kobs/I of activity-based probes, cathepsin S. In kind it is biochemical. To be noted: Fig. 6A; pseudo-first order, probe at least 5-fold excess over cathepsin, 100 μM ACC substrate; pH 5.5, 37 °C; triplicate, SD below 20%. The protocol:
as §1, §2

In test [1] the test system is cathepsins L, V, B, S and K. Kind of test: Labeling of recombinant cathepsins by Cy5 probes, SDS-PAGE. In kind it is biochemical, human. Particulars: cathepsins 10 nM or 100 nM, probe/enzyme ratio 0.2, 1, 5 and 25, 30 min, Cy5 scan. The protocol:
In experiment A, the probe concentrations were 2 nM, 10 nM, 50 nM and 250 nM, while in experiment B the probe concentrations were 20 nM, 100 nM, 500 nM and 2.5 μM. The reaction volume for all the samples was 200 μL. After 30 min, 100 μL of 3× SDS/DTT was added to the reaction mixtures, the samples were boiled for 5 min, and then 20 μL of the sample was run on 4–12% Bis-Tris Plus 15-well gels for 30 min at 200 V with 2 μL of PageRuler™ Prestained Protein Ladder. The gels were then directly scanned at 700 nm (red channel for Cy5 detection; excitation 685 nm) using an Odyssey fluorescence imaging system (LI-COR) and the images were analyzed using Image Studio software.

A value given as a limit tells only on which side of the number the result lay.

T2 sequence (P25774 115-331): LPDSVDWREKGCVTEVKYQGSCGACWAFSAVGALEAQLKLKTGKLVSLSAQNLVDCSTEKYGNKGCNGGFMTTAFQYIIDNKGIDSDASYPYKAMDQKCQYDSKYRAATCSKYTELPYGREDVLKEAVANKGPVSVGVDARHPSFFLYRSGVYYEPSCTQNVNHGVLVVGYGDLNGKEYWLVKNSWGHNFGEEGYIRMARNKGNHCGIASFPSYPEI

With “Cy5-6-ahx-His-DThr-Phe(F5)-Cys(Bzl)-AOMK [MP-cL3]”, the “kobs/I Cath-K” value at cathepsin K is less than 200 M⁻¹ s⁻¹. Moreover, at cathepsin S, the “kobs/I Cath-S” value was 225 M⁻¹ s⁻¹. The “labeling of recombinant cathepsins L, V, B, S and K” value in test [1] was “very high degree of selectivity”.
